“And” between values parts separate entries of the source, which are not always exact repeats. Equal values may be shown once.
Experiments:
[1] = molecular target: T1, Genome polyprotein (dengue virus type 2, UniProt P29990); format: functional, Thailand/16681/1984
[2] = molecular target: T1, Genome polyprotein; format: functional, Thailand/16681/1984; remark: listed apart in the source

T1 sequence (P29990 1346-1475 limits assumed): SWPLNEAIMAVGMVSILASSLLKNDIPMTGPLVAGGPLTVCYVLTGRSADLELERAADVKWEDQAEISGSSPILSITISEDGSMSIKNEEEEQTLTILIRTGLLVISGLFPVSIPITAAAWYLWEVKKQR
T1 sequence (P29990 1476-2093 limits assumed): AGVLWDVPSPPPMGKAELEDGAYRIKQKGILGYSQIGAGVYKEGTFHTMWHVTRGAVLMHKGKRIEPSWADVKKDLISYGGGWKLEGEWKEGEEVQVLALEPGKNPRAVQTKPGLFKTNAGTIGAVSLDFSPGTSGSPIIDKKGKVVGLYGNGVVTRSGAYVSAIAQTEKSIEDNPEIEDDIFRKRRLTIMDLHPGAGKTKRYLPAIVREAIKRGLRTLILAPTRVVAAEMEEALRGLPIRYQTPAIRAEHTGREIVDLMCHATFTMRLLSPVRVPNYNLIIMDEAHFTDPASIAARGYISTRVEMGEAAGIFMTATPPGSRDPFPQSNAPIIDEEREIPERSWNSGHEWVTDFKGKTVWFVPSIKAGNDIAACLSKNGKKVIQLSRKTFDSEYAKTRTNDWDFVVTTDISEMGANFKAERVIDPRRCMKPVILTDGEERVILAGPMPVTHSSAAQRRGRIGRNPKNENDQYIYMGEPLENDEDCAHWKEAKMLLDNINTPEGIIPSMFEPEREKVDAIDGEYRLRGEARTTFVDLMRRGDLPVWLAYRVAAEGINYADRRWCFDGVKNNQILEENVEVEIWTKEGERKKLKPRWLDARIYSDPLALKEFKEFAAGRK

Row | Compound | IC50 [1] | IC50 [2]
1 | CC(C)c1nnc(-c2nc3c(C(=O)Nc4ccc5c(c4)CNC5)cc(F)cc3[nH]2)s1 | 35.2 µM and 34.8 µM | 64.1 µM and 67.1 µM
2 | Cc1c(C(=O)NCc2ccc(CN)cc2)cc(C2CC2)n1C | > 99.5 µM | > 100 µM
3 | Cc1c(C(=O)Nc2cc(C(=O)N3C[C@@H]4[C@H](O)[C@@H]4C3)ccn2)cc(C2CC2)n1C | > 99.5 µM | > 100 µM
4 | NCc1cc(-c2ccncc2)cc([C@@H]2C[C@H]2c2cc(Cl)cc(NC(=O)OCc3ccccc3)c2)c1 | > 99.5 µM | > 100 µM
5 | Cc1c(C(=O)Nc2cc(C(=O)N3CC4(CCO4)C3)ccn2)cc(C2CC2)n1C | > 99.5 µM | > 100 µM
6 | O=C(NCC(F)F)[C@H](Nc1ccc2c(c1)CNC2)c1cc(Br)cc2nc[nH]c12 | > 99.5 µM | > 100 µM
7 | NCc1cccc(NC(=O)[C@@H]2CCC[C@]3(CCNC3=O)C2)c1 | > 99.5 µM | > 100 µM
8 | O=C(Nc1ccc2c(c1)CNC2)c1cc(F)cc2c1CCC2 | > 99.5 µM | > 100 µM
9 | CC(C)(C)NC(=O)C[C@H]1NCc2cc(NC(=O)c3cc(Cl)cc4[nH]ncc34)ccc21 | > 99.5 µM | > 100 µM
10 | N#C[C@H](Nc1cc(Cl)cc(C2CC2)c1)c1ccc(-c2nn[nH]n2)cc1 | 27.2 µM | 17.9 µM
11 | O=C(Nc1ccc2c(c1)CNC2)c1cc(F)cc(-c2c[nH]c(=O)c(F)c2)c1 | > 99.5 µM | > 100 µM
12 | O=C(Nc1ccc2c(c1)CNC2)c1cccc2sccc12 | > 99.5 µM | > 100 µM
13 | Cc1ncc2c(n1)CCC[C@H]2NC(=O)c1cccc2c1CC(=O)N2 | > 99.5 µM | > 100 µM
14 | N[C@H]1CCOc2ccc(NC(=O)c3cc(Cl)cc(NC(=O)OCc4ccccc4)c3)cc21 | > 99.5 µM | > 100 µM
15 | O=C(O)CCc1ccc(NC(=O)c2cc(Cl)cc(C3CC3)c2)cc1 | > 99.5 µM | > 100 µM
16 | O=C(Nc1cc(Cl)cc(C(=O)Nc2ccc3c(c2)C(=O)NC3)c1)OCc1ccccc1 | > 99.5 µM | > 100 µM
17 | COc1cc(Cl)cc(C(=O)Nc2ccc3c(c2)CNC3)c1 | > 99.5 µM | > 100 µM
18 | C[C@]1(OCCCO)C(=O)Nc2cc(F)cc(C(=O)Nc3ccc4c(c3)CNC4)c21 | > 99.5 µM | > 100 µM
19 | O=C(Nc1cc(Cl)cc(C(=O)Nc2ccc([C@]34CNC[C@H]3C4)cc2)c1)OCc1ccccc1 | > 99.5 µM | > 100 µM
20 | N#Cc1cc(CN)cc(NC(=O)c2cc(Cl)cc(NC(=O)OCc3ccccc3)c2)c1 | > 99.5 µM | > 100 µM
21 | O=C(Nc1cc(-c2cccnc2)ccn1)c1sc2c(c1Br)CNC2 | > 99.5 µM | > 100 µM

Row | Compound | IC50 [1] | IC50 [2]
22 | NCc1cccc(NC(=O)c2c(C(F)F)nc3cnccn23)c1 | > 99.5 µM | > 100 µM
23 | O=C(Nc1cc2c(c(-c3ccnnc3)c1)CNC2)c1cc(Cl)cc2[nH]ncc12 | > 99.5 µM | 98.4 µM
24 | O=C(O)c1cc(Cl)c(F)cc1NS(=O)(=O)c1ccc(Oc2ccccc2Cl)cc1 | 7.82 µM | 11.2 µM and 8.35 µM and 16.5 µM and 10.2 µM and 9.1 µM and 8.36 µM and 12.3 µM and 5.27 µM and 5.73 µM
25 | Cc1c(C(=O)Nc2cc(Br)c3c(c2)COC3)cc(C2CC2)n1C | > 99.5 µM | > 100 µM
26 | C#Cc1cc(Cl)cc(C(=O)Nc2ccc3c(c2)CNC3)c1 | > 99.5 µM | > 100 µM
27 | CC(C)(C)OC(=O)N1Cc2ccc(N[C@H](C(=O)O)c3cc(Cl)cc4[nH]ncc34)cc2C1 | 78.2 µM | 57.6 µM and 41.9 µM
28 | O=C(NCCCF)[C@H](Nc1ccc2c(c1)CNC2)c1cc(Cl)cc(C2CC2)c1 | > 99.5 µM | > 100 µM
29 | Cc1nc2c(C(=O)Nc3ccc4c(c3)CNC4)cccc2[nH]1 | > 99.5 µM | > 100 µM
30 | O=C(Nc1cc(Cl)cc(N[C@H](C#CCO)c2ccc(-c3nn[nH]n3)cc2)c1)OCc1ccccc1 | 26.4 µM | 11.7 µM
31 | N[C@H]1CCc2ccc(NC(=O)c3cc(Cl)cc4[nH]ncc34)cc21 | > 99.5 µM | > 100 µM
32 | Cc1nc(N2CCOCC2)sc1CC(=O)Nc1cccc(CN)c1 | > 99.5 µM | > 100 µM
33 | O=C(Nc1ccc2c(c1)C(=O)OC2)c1ccc2c(c1)CNC2 | > 99.5 µM | > 100 µM
34 | O=C(Nc1ccc2c(c1)CNC2)c1cccc2c1[C@]1(CCNC1)C(=O)N2 | > 99.5 µM | > 100 µM
35 | CC(C)(C)c1[nH]c2ccc(F)cc2c1Cc1ccc(-c2nnn[nH]2)cc1 | 23.6 µM | 12.1 µM
36 | O=C(Nc1ccc2c(c1)CNC2)c1cc(Br)cc2[nH]c(=O)[nH]c12 | 67.1 µM | 54.4 µM
37 | CNC(=O)CN1CCC([C@@H](NC(=O)OCc2ccccc2)C(=O)Nc2cccc(CN)c2)CC1 | > 99.5 µM | > 100 µM
38 | O=C(Nc1cc(Cl)cc(C(=O)Nc2cccc3c2CNC3)c1)OCc1ccccc1 | > 99.5 µM | > 100 µM
39 | CCCN(C)CC(=O)N1CCC([C@@H](NC(=O)OCc2ccccc2)C(=O)Nc2cccc(CN)c2)CC1 | > 99.5 µM | > 100 µM
40 | C[C@H](NC(=O)c1cccc2c1CC(=O)N2)c1ccncc1F | > 99.5 µM | > 100 µM
41 | O=C(Nc1cc(Cl)cc(C(=O)Nc2ccc(CC3CCNCC3)cc2)c1)OCc1ccccc1 | 14 µM and 17.3 µM | 33.3 µM
42 | CSc1cc(Cl)cc(C(=O)Nc2cccc(-n3nn[nH]c3=O)c2)c1 | > 99.5 µM | 78.2 µM

Row | Compound | IC50 [1] | IC50 [2]
43 | COc1ccc2c(c1)c(C(=O)Nc1cccc(CN)c1)c(C)n2C1CCCC1 | > 99.5 µM | > 100 µM
44 | CN(C)CC[C@H](NC(=O)c1cc(Cl)cc(NC(=O)OCc2ccccc2)c1)c1ccccc1 | > 99.5 µM | > 100 µM
45 | NCc1cccc(NC(=O)[C@H](NC(=O)OCc2ccccc2)c2cccc(OC[C@H]3COCCO3)c2)c1 | > 99.5 µM | > 100 µM
46 | Cc1cc(C(F)(F)F)nc(C(=O)Nc2cccc(CN)c2)n1 | > 99.5 µM | > 100 µM
47 | N#Cc1cc(Cl)cc(C(=O)Nc2ccc3c(c2)CNC3)c1 | > 99.5 µM | > 100 µM
48 | C[C@@]1(c2cc(Cl)cc(NC(=O)OCc3ccccc3)c2)C[C@H]1c1cccc(CN)c1 | 88.1 µM | > 100 µM
49 | O=C(Nc1ccc2c(c1)CNC2)N1CC[C@H](Oc2ccc(C3CC3)cn2)C1 | > 99.5 µM | > 100 µM
50 | Cc1cc(CN)cc(NC(=O)c2cc(Cl)cc(NC(=O)OCc3ccccc3)c2)c1 | 42.2 µM | > 100 µM
51 | O=C(Nc1ccc2[nH]c(=O)[nH]c2c1)c1cc(F)cc2[nH]ncc12 | > 99.5 µM | > 100 µM
52 | O=C1Cc2cc(C(=O)Nc3ccc4c(c3)CNC4)ccc2N1 | 9.95 µM and 7.04 µM and 6.09 µM | > 100 µM
53 | CC(C)NC(=O)[C@H](Nc1ccc2c(c1)CNC2)c1cccc2cn[nH]c12 | > 99.5 µM | > 100 µM
54 | O=C(Nc1ccc2c(c1)CNC2)c1cccc2[nH]cnc12 | > 99.5 µM | > 100 µM
55 | CN1CC=C(c2cccc([C@@H](NC(=O)OCc3ccccc3)C(=O)Nc3cccc(CN)c3)c2)CC1 | > 99.5 µM | > 100 µM
56 | NCc1cc(Br)cc([C@H]2C[C@@H]2c2cc(Cl)cc(NC(=O)OCc3ccccc3)c2)c1 | 16.1 µM | 33.5 µM
57 | N#C[C@]1(Nc2cccc(-c3nn[nH]n3)c2)C(=O)Nc2ccc(Cl)cc21 | > 99.5 µM | > 100 µM
58 | NCc1cccc(NC(=O)[C@@H]2[C@H](N)[C@@H]3CCCCC[C@@H]32)c1 | > 99.5 µM | > 100 µM
59 | O=C(Nc1cc(-c2cccnc2)ccn1)c1csc(C2CC2)n1 | > 99.5 µM | > 100 µM
60 | CSc1cc(Cl)cc(C(=O)Nc2cccc(CN)c2)c1 | > 99.5 µM | > 100 µM
61 | NCCc1cc(C(=O)Nc2cc(-c3cccnc3)ccn2)no1 | > 99.5 µM | > 100 µM
62 | NCc1cccc(NC(=O)c2cc(C3CC3)n3nccc3n2)c1 | > 99.5 µM | > 100 µM
63 | COC[C@]1(c2nc3c(C(=O)Nc4ccc5c(c4)CNC5)cc(F)cc3[nH]2)CCOC1 | > 99.5 µM | > 100 µM

Row | Compound | IC50 [1] | IC50 [2]
64 | CC(=O)N1Cc2ccc(NC(=O)c3cc(Cl)cc4[nH]ncc34)cc2C1 | > 99.5 µM | > 100 µM
65 | O=C(Nc1cc(Cl)cc([C@H](Nc2cccc(-c3nn[nH]n3)c2)C(=O)N[C@H]2CCOC2)c1)OCc1ccccc1 | 40.3 µM | 22.9 µM
66 | CN(C)C(=O)N1Cc2ccc(NC(=O)c3cc(Cl)cc4[nH]ncc34)cc2C1 | > 99.5 µM | > 100 µM
67 | COc1cc(-c2cc(NC(=O)c3cc(F)cc4[nH]ncc34)cc3c2CNC3)ccn1 | 42.4 µM and 32.7 µM | 29 µM and 73.2 µM
68 | O=C(N[C@H]1[C@H]2CCCCC[C@H]2[C@H]1C(=O)Nc1cccc(C2CCNCC2)c1)OCc1ccccc1 | 17.9 µM and 53 µM | 32.7 µM
69 | Fc1cc(CNc2ccc3c(c2)CNC3)c2cn[nH]c2c1 | > 99.5 µM | > 100 µM
70 | C[C@H]1CCN1C(=O)Cn1ccnc(N2CC[C@H](CO)C2)c1=O | > 99.5 µM | > 100 µM
71 | CNC(=O)[C@H](Nc1ccc(-c2nn[nH]n2)cc1)c1cc(Cl)cc(NC(=O)OCc2ccccc2)c1 | 50 µM | 40.7 µM
72 | Cc1c(F)cc(C(=O)Nc2cccc(CN)c2)c(F)c1NC(=O)OCc1ccccc1 | 69.8 µM | 100 µM
73 | O=C(O)Cn1nc2ccc(-c3cc(Cl)cc(NC(=O)OCc4ccccc4)c3)nn2c1=O | > 99.5 µM | > 100 µM
74 | Cc1ccc(S(=O)(=O)CCCn2ccc3sccc3c2=O)cc1 | > 99.5 µM | > 100 µM
75 | COC(=O)c1cc(NC(=O)c2cc(Cl)cc(NC(=O)OCc3ccccc3)c2)cc(-c2nnn[nH]2)c1 | 6.17 µM | 5.42 µM and 6.24 µM
76 | N#Cc1cc(CN)cc([C@H]2C[C@@H]2c2cc(Cl)cc(NC(=O)OCc3ccccc3)c2)c1 | > 99.5 µM | > 100 µM
77 | CCN(CC)C[C@H]1CCCN(C(=O)Nc2ccc3c(c2)CNC3)C1 | > 99.5 µM | > 100 µM
78 | CCCN(C)C(=O)Cn1ccnc(N2CC[C@H](CO)C2)c1=O | > 99.5 µM | > 100 µM
79 | Cn1cc2cc(Cl)cc(C(=O)Nc3ccc4c(c3)CNC4)c2n1 | > 99.5 µM | 69.9 µM and > 100 µM
80 | O=C(Nc1cc(Cl)cc(-c2ccc3[nH]nc(C(=O)O)c3c2)c1)OCc1ccccc1 | 9.15 µM | 6.27 µM and 5 µM
81 | O=C1CCc2c(cccc2C(=O)Nc2ccc3c(c2)CNC3)N1 | > 99.5 µM | > 100 µM
82 | O=C(Nc1cc(Cl)cc(-c2cccc3c(C(=O)O)cccc23)c1)OCc1ccccc1 | 9.78 µM | 7.51 µM

From ChEMBL document CHEMBL5604063, “ASAP - DENV-2 NS2B-NS3 protease fluorescence dose response” (2024)
